From ChEMBL document CHEMBL1275577, “Study of the in vitro activities of rifaximin and comparator agents against 536 anaerobic intestinal bacteria from the perspective of potential utility in pathology involving bowel flora” (Antimicrob Agents Chemother, 2009)

Assays:
Type in all cases: functional
[1] = system: Clostridium lactatifermentans; experiment: Antimicrobial activity against Clostridium lactatifermentans by Wadsworth agar dilution method in presence of beta-lactamase inhibitor Sulbactam; details: Anaerotignum lactatifermentans
Finegoldia magna = experiment: Antimicrobial activity against Finegoldia magna by Wadsworth agar dilution method in presence of beta-lactamase inhibitor Sulbactam
Clostridium scindens = experiment: Antimicrobial activity against Clostridium scindens by Wadsworth agar dilution method in presence of beta-lactamase inhibitor Sulbactam
Hoylesella loescheii = experiment: Antimicrobial activity against Prevotella loescheii by Wadsworth agar dilution method in presence of beta-lactamase inhibitor Sulbactam
Bacteroides caccae = experiment: Antimicrobial activity against Bacteroides caccae by Wadsworth agar dilution method in presence of beta-lactamase inhibitor Sulbactam
Clostridium bolteae = experiment: Antimicrobial activity against Clostridium bolteae by Wadsworth agar dilution method in presence of beta-lactamase inhibitor Sulbactam; details: Enterocloster bolteae
Prevotella disiens = experiment: Antimicrobial activity against Prevotella disiens by Wadsworth agar dilution method in presence of beta-lactamase inhibitor Sulbactam
[2] = system: Lactobacillus acidophilus; experiment: Antimicrobial activity against Lactobacillus acidophilus by Wadsworth agar dilution method in presence of beta-lactamase inhibitor Sulbactam
Clostridium perfringens = experiment: Antimicrobial activity against Clostridium perfringens by Wadsworth agar dilution method in presence of beta-lactamase inhibitor Sulbactam
[3] = system: Bifidobacterium adolescentis; experiment: Antimicrobial activity against Bifidobacterium adolescentis by Wadsworth agar dilution method in presence of beta-lactamase inhibitor Sulbactam
[4] = system: Desulfovibrio fairfieldensis; experiment: Antimicrobial activity against Desulfovibrio fairfieldensis by Wadsworth agar dilution method in presence of beta-lactamase inhibitor Sulbactam
Peptoniphilus harei = experiment: Antimicrobial activity against Peptoniphilus harei by Wadsworth agar dilution method in presence of beta-lactamase inhibitor Sulbactam
Bifidobacterium bifidum = experiment: Antimicrobial activity against Bifidobacterium bifidum by Wadsworth agar dilution method in presence of beta-lactamase inhibitor Sulbactam
Ruminococcus gnavus = experiment: Antimicrobial activity against Ruminococcus gnavus by Wadsworth agar dilution method in presence of beta-lactamase inhibitor Sulbactam; details: Mediterraneibacter gnavus
Clostridium sporogenes = experiment: Antimicrobial activity against Clostridium sporogenes by Wadsworth agar dilution method in presence of beta-lactamase inhibitor Sulbactam
Clostridium leptum = experiment: Antimicrobial activity against Clostridium leptum by Wadsworth agar dilution method in presence of beta-lactamase inhibitor Sulbactam
[5] = Antimicrobial activity against Bifidobacterium pseudocatenulatum by Wadsworth agar dilution method in presence of beta-lactamase inhibitor Sulbactam
[Clostridium] innocuum = Antimicrobial activity against Clostridium innocuum by Wadsworth agar dilution method in presence of beta-lactamase inhibitor Sulbactam
Bacteroides stercoris = experiment: Antimicrobial activity against Bacteroides stercoris by Wadsworth agar dilution method in presence of beta-lactamase inhibitor Sulbactam
Clostridium bartlettii = experiment: Antimicrobial activity against Clostridium bartlettii by Wadsworth agar dilution method in presence of beta-lactamase inhibitor Sulbactam; details: Intestinibacter bartlettii
Porphyromonas somerae = experiment: Antimicrobial activity against Porphyromonas somerae by Wadsworth agar dilution method in presence of beta-lactamase inhibitor Sulbactam
Bacteroides fragilis = experiment: Antimicrobial activity against Bacteroides fragilis by Wadsworth agar dilution method in presence of beta-lactamase inhibitor Sulbactam
[6] = system: Pseudoramibacter alactolyticus; experiment: Antimicrobial activity against Eubacterium alactolyticum by Wadsworth agar dilution method in presence of beta-lactamase inhibitor Sulbactam
[7] = system: Fusobacterium necrophorum; experiment: Antimicrobial activity against Fusobacterium necrophorum by Wadsworth agar dilution method in presence of beta-lactamase inhibitor Sulbactam
Bilophila wadsworthia = experiment: Antimicrobial activity against Bilophila wadsworthia by Wadsworth agar dilution method in presence of 1% pyruvic acid and beta-lactamase inhibitor Sulbactam
Propionibacterium avidum = experiment: Antimicrobial activity against Propionibacterium avidum by Wadsworth agar dilution method in presence of beta-lactamase inhibitor Sulbactam; details: Cutibacterium avidum
Lactobacillus jensenii = experiment: Antimicrobial activity against Lactobacillus jensenii by Wadsworth agar dilution method in presence of beta-lactamase inhibitor Sulbactam
[8] = system: Paraclostridium bifermentans; experiment: Antimicrobial activity against Clostridium bifermentans by Wadsworth agar dilution method in presence of beta-lactamase inhibitor Sulbactam
Clostridium cadaveris = experiment: Antimicrobial activity against Clostridium cadaveris by Wadsworth agar dilution method in presence of beta-lactamase inhibitor Sulbactam
Eggerthella lenta = experiment: Antimicrobial activity against Eggerthella lenta by Wadsworth agar dilution method in presence of beta-lactamase inhibitor Sulbactam
[9] = system: Limosilactobacillus fermentum; experiment: Antimicrobial activity against Lactobacillus fermentum by Wadsworth agar dilution method in presence of beta-lactamase inhibitor Sulbactam
Clostridium disporicum = experiment: Antimicrobial activity against Clostridium disporicum by Wadsworth agar dilution method in presence of beta-lactamase inhibitor Sulbactam
[10] = system: Coprobacillus cateniformis; experiment: Antimicrobial activity against Coprobacillus cateniformis by Wadsworth agar dilution method in presence of beta-lactamase inhibitor Sulbactam
Schaalia odontolytica = experiment: Antimicrobial activity against Actinomyces odontolyticus by Wadsworth agar dilution method in presence of beta-lactamase inhibitor Sulbactam

CC1(C)S[C@@H]2[C@H](NC(=O)[C@H](N)c3ccccc3)C(=O)N2[C@H]1C(=O)O [AMPICILLIN]
32 µg/mL: MIC90 (Bacteroides caccae) | MIC90 [4]
0.5 µg/mL: MIC50 (Hoylesella loescheii) | MIC50 (Prevotella disiens) | MIC90 ([Clostridium] innocuum) | MIC90 (Porphyromonas somerae)
2 µg/mL: MIC90 (Finegoldia magna) | MIC90 [2] | MIC90 [3] | MIC90 (Peptoniphilus harei) | MIC90 (Bifidobacterium bifidum) | MIC90 (Ruminococcus gnavus) | MIC90 [5] | MIC50 (Bacteroides stercoris) | MIC90 [6] | MIC50 (Bilophila wadsworthia) | MIC90 (Propionibacterium avidum) | MIC90 (Lactobacillus jensenii) | MIC90 (Eggerthella lenta) | MIC90 [9] | MIC90 [10] | MIC90 (Schaalia odontolytica)
0.25 µg/mL: MIC [1] | MIC50 [1] | MIC (Finegoldia magna) | MIC50 (Finegoldia magna) | MIC (Clostridium scindens) | MIC50 (Clostridium scindens) | MIC (Clostridium bolteae) | MIC50 (Clostridium bolteae) | MIC [2] | MIC50 [2] | MIC50 (Clostridium perfringens) | MIC90 (Clostridium perfringens) | MIC [3] | MIC50 [3] | MIC (Peptoniphilus harei) | MIC50 (Peptoniphilus harei) | MIC (Bifidobacterium bifidum) | MIC50 (Bifidobacterium bifidum) | MIC (Ruminococcus gnavus) | MIC50 (Ruminococcus gnavus) | MIC (Clostridium sporogenes) | MIC50 (Clostridium sporogenes) | MIC (Clostridium leptum) | MIC50 (Clostridium leptum) | MIC [5] | MIC50 [5] | MIC ([Clostridium] innocuum) | MIC50 ([Clostridium] innocuum) | MIC (Clostridium bartlettii) | MIC50 (Clostridium bartlettii) | MIC (Porphyromonas somerae) | MIC50 (Porphyromonas somerae) | MIC [6] | MIC50 [6] | MIC (Propionibacterium avidum) | MIC50 (Propionibacterium avidum) | MIC (Lactobacillus jensenii) | MIC50 (Lactobacillus jensenii) | MIC [8] | MIC50 [8] | MIC (Clostridium cadaveris) | MIC50 (Clostridium cadaveris) | MIC (Eggerthella lenta) | MIC50 (Eggerthella lenta) | MIC [9] | MIC50 [9] | MIC (Clostridium disporicum) | MIC50 (Clostridium disporicum) | MIC [10] | MIC50 [10] | MIC (Schaalia odontolytica) | MIC50 (Schaalia odontolytica)
1 µg/mL: MIC90 [1] | MIC90 (Clostridium scindens) | MIC90 (Clostridium bolteae) | MIC90 (Clostridium sporogenes) | MIC90 (Clostridium leptum) | MIC90 (Clostridium bartlettii) | MIC50 (Bacteroides fragilis) | MIC50 [7] | MIC90 [8] | MIC90 (Clostridium cadaveris) | MIC90 (Clostridium disporicum)
4 µg/mL: MIC90 (Hoylesella loescheii) | MIC90 (Prevotella disiens) | MIC50 [4] | MIC90 [7]
16 µg/mL: MIC50 (Bacteroides caccae) | MIC90 (Bacteroides stercoris) | MIC90 (Bacteroides fragilis) | MIC90 (Bilophila wadsworthia)
